Data from patent publication US5428015A, “Vasoactive intestinal polypeptide analogues and use thereof” (Sana Kagaku Kenkyusho Co., Ltd., priority 1990, dated 1995).

Key:
PCA reaction = test: Anti-allergic action: passive cutaneous anaphylaxis test (PCA reaction); type: in vivo; conditions: rat, injected into a vein
Experimental: A rat was immunized with egg-albumin suspended in aluminum hydroxide gel in a conventional manner and a blood letting was carried out to obtain immune serum rich in IgE.
A male rat was anethtized with ether and hairs on back were sheared to intradenally inject by 0.1 ml of the immune serum solution described in Item (1) and diluted to 5-folds, at both sides with a certain distance from a medial line on the back. After 72 hours, a mixed solution of egg albumin (5 mg/kg), 2% Evans blue and a test compound ([L-Leu^17 ]-VIP-Hse or pure native VIP) or disodium cromoglycate was injected into a vein. After 30 minutes from an occasion of PCA reaction, the experimental animal was killed and pealed-off the skin to obtain a piece of the skin dyed with the coloring matter.
The coloring matter was extracted in accordance with the method described by Katayama ["Microbio. Immunol.", Vol. 22, No. 2, pages 89 (1978)] and an amount thereof was measured at 620 nm in wave length to calculate an inhibition of the PCA reaction.

arterial pressure = test: Hypotensing action: arterial pressure after injection in femoral artery; type: in vivo; conditions: anethtized beagle dog, 0.02-10 μg/kg
Experimental: In a femoral artery of anethtized beagle dog, each of the VIP analogues as Test Samples was injected in a dose of 0.02-10 μg/kg and measured an arterial pressure to prepare a chart showing a relation between the dose and change in blood pressure and check an amount of dose which shall cause a reduction of 15 mmHg in blood pressure.

Compound	Inhibition (%) of the PCA reaction (PCA reaction; dose 0.01 mg/kg)	Inhibition (%) of the PCA reaction (PCA reaction; dose 0.1 mg/kg)	Inhibition (%) of the PCA reaction (PCA reaction; dose 1.0 mg/kg)	amount of dose causing a reduction of 15 mmHg in blood pressure, relative value (native VIP = 100%) (arterial pressure)
O=C([O-])c1cc(=O)c2c(OCC(O)COc3cccc4oc(C(=O)[O-])cc(=O)c34)cccc2o1.[Na+].[Na+] [Disodium cromoglycate]	5%	28%	31%	–
CC[C@H](C)[C@H](NC(=O)[C@H](CO)NC(=O)[C@H](CC(N)=O)NC(=O)[C@H](CC(C)C)NC(=O)[C@H](Cc1ccc(O)cc1)NC(=O)[C@H](CCCCN)NC(=O)[C@H](CCCCN)NC(=O)[C@@H](NC(=O)[C@H](C)NC(=O)[C@H](CCSC)NC(=O)[C@H](CCC(N)=O)NC(=O)[C@H](CCCCN)NC(=O)[C@H](CCCNC(=N)N)NC(=O)[C@H](CC(C)C)NC(=O)[C@H](CCCNC(=N)N)NC(=O)[C@@H](NC(=O)[C@H](Cc1ccc(O)cc1)NC(=O)[C@H](CC(N)=O)NC(=O)[C@H](CC(=O)O)NC(=O)[C@@H](NC(=O)[C@H](Cc1ccccc1)NC(=O)[C@@H](NC(=O)[C@H](C)NC(=O)[C@H](CC(=O)O)NC(=O)[C@H](CO)NC(=O)[C@@H](N)Cc1c[nH]cn1)C(C)C)[C@@H](C)O)[C@@H](C)O)C(C)C)C(=O)N[C@@H](CC(C)C)C(=O)N[C@@H](CC(N)=O)C(N)=O [Native VIP, vasoactive intestinal polypeptide]	23%	72%	67%	100%
[L-Leu^17 ]-VIP-Hse-NH(CH2)9 CH3 [[L-Leu^17]-VIP-NH(CH2)9 CH3]	–	–	–	68%
